Laboratory results from patent US9388142B2, “Quinazolinone derivatives as PARP inhibitors” (MERCK PATENT GMBH, priority 2012, dated 2016).

Columns and labels:
His-tagged Parp-1 = target: T1, His-tagged Parp-1 (Homo sapiens, UniProt P09874); assay: PARP-1 autoparsylation assay (HTRF); assay type: biochemical
T1 construct: purchased Enzo Life Sciences GmbH, Lörrach, Germany
Text: Description of the PARP1 Assay
Biochemical Activity Testing of PARP-1: Autoparsylation Assay
The autoparsylation assay is run in two steps: the enzymatic reaction in which His-tagged Parp-1 transfers biotinylated ADP-ribose/ADP-ribose to itself from biotinylated NAD/NAD as co-substrate and the detection reaction where a time resolved FRET between cryptate labelled anti-His antibody bound to the His tag of the enzyme and Xlent® labelled-streptavidin bound the biotin-parsylation residue is analysed. The autoparsylation activity is detectable directly via the increase in HTRF signal.
The autoparsylation assay is performed as 384-well HTRF® (Cisbio, Codolet, France) assay format in Greiner low volume nb 384-well microtiter plates. 35 nM His-tagged Parp-1 (human, recombinant, Enzo Life Sciences GmbH, Lörrach, Germany) and a mixture of 125 nM bio-NAD (Biolog, Life science Inst., Bremen, Germany) and 800 nM NAD as co-substrate are incubated in a total volume of 6 μl (100 mM Tris/HCl, 4 mM Mg-chloride, 0.01% IGEPAL® CA630, 1 mM DTT, 0.5% DMSO, pH 8, 13 ng/μl activated DNA (BPS Bioscience, San Diego, US)) in the absence or presence of the test compound (10 dilution concentrations) for 150 min at 23° C. The reaction is stopped by the addition of 4 μl of the Stop/detection solution (70 nM SA-Xlent® (Cisbio, Codolet, France), 2.5 nM Anti-His-K® (Eu-labelled anti-His, Cisbio, Codolet, France) in 50 mM HEPES, 400 mM KF, 0.1% BSA, 20 mM EDTA, pH 7.0). After 1 h incubation at room temperature the HTRF iss measured with an Envision multimode reader (Perkin Elmer LAS Germany GmbH) at excitation wavelength 340 nm (laser mode) and emission wavelengths 615 nm and 665 nm. The ratio of the emission signals is determined. The full value used is the inhibitor-free reaction. The pharmacological zero value used is Olaparib (LClabs, Woburn, US) in a final concentration of 1 The inhibitory values (IC50) are determined using either the program Symyx Assay Explorer® or Condosseo® from GeneData.

[1] = target: T2, GST-tagged Tnks-1 (1023-1327 aa) (Homo sapiens, UniProt O95271); assay: TNKS1 activity ELISA (autoparsylation assay); assay type: biochemical; conditions: read-out: IC50 TNKS1 ELISA
T2 construct: GST-tagged Tnks-1 (1023-1327 aa, prepared in-house); made in house
Description: (§1) Description of the TNKS1 and TNKS2 ELISA Assay
(§2) Then the activity assay with biotinylated NAD is performed in the absence/presence of the compounds. During the enzymatic reaction GST tagged TNKS transfers biotinylated ADP-ribose to itself from biotinylated NAD as co-substrate. For the detection streptavidin-HRP conjugate is added that binds to the biotinylated TNKS and is thereby captured to the plates. The amount of biotinylated resp. autoparsylated TNKS is detected with a luminescence substrate for HRP. The level of the luminescence signal correlates directly with the amount of autoparsylated TNKS and therefore with activity of TNKS.
(§3) The activity ELISA is performed in 384 well Glutathione coated microtiter plates (Express capture Glutathione coated plate, Biocat, Heidelberg, Germany). The plates are pre-equilibrated with PBS. […] The plates are washed 3 times with PBS-Tween-20. The wells are blocked by incubation at room temperature for 20 minutes with 50 μl blocking buffer (PBS, 0.05% Tween-20, 0.5% BSA). Afterwards the plates are washed 3 times with PBS-Tween-20. […] The reaction is stopped by 3 times washing with PBS-Tween-20. For the detection 50 μl of 20 ng/μl Streptavidin, HRP conjugate (MoBiTec, Gottingen, Germany) in PBS/0.05% Tween-20/0.01% BSA are added and the plates are incubated for 30 minutes at room temperature. After three times washing with PBS-Tween-20 50 μl of SuperSignal ELISA Femto Maximum sensitivity substrate solution (ThermoFisherScientific (Pierce), Bonn, Germany) are added. Following a 1 minute incubation at room temperature luminescence signals are measured with an Envision multimode reader (Perkin Elmer LAS Germany GmbH) at 700 nm. The full value used is the inhibitor-free reaction. […] The inhibitory values (IC50) are determined using either the program Symyx Assay Explorer® or Condosseo® from GeneData.

tankyrase 1/2 = assay: Cellular inhibition of tankyrase: increase of Axin2 level in DLD1 cells (Luminex); assay type: cell-based; conditions: read-out: EC50 tankyrase 1/2 (cell assay), 24 hours
Description: Measurement of Cellular Inhibition of Tankyrase
Cells of the colon carcinoma cell line DLD1 are plated in 96 well plates with 1.5×10^4 cells per well. Next day, cells are treated with a serial dilution of test compound in seven steps as triplicates with a final DMSO concentration of 0.3%. After 24 hours, cells are lysed in lysis buffer (20 mM Tris/HCl pH 8.0, 150 mM NaCl, 1% NP40, 10% Glycerol) and lysates are cleared by centrifugation through a 96 well filter plate (0.65 μm). […] The amount of isolated Axin2 protein is determined in a Luminex^200 machine (Luminex Corporation) according to the manufacturer's instruction by counting 100 events per well. […] For analysis, the obtained data are normalized against the untreated solvent control and fitted for determination of the EC50 values using the Assay Explorer software (Accelrys).

[2] = target: GST-tagged Tnks-2 (873-1166 aa) (Homo sapiens, UniProt Q9H2K2); assay: biochemical
Description: as §1, §2, §3

T2 sequence (O95271 1023-1327): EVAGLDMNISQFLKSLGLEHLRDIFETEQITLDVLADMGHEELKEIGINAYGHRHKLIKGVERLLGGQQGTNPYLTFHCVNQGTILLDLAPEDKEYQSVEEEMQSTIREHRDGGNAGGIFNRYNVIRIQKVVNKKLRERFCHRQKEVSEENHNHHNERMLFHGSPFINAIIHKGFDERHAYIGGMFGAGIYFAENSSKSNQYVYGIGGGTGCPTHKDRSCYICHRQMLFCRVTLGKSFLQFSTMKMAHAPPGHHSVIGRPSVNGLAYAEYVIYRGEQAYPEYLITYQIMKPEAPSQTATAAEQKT
T1 sequence (P09874 whole entry): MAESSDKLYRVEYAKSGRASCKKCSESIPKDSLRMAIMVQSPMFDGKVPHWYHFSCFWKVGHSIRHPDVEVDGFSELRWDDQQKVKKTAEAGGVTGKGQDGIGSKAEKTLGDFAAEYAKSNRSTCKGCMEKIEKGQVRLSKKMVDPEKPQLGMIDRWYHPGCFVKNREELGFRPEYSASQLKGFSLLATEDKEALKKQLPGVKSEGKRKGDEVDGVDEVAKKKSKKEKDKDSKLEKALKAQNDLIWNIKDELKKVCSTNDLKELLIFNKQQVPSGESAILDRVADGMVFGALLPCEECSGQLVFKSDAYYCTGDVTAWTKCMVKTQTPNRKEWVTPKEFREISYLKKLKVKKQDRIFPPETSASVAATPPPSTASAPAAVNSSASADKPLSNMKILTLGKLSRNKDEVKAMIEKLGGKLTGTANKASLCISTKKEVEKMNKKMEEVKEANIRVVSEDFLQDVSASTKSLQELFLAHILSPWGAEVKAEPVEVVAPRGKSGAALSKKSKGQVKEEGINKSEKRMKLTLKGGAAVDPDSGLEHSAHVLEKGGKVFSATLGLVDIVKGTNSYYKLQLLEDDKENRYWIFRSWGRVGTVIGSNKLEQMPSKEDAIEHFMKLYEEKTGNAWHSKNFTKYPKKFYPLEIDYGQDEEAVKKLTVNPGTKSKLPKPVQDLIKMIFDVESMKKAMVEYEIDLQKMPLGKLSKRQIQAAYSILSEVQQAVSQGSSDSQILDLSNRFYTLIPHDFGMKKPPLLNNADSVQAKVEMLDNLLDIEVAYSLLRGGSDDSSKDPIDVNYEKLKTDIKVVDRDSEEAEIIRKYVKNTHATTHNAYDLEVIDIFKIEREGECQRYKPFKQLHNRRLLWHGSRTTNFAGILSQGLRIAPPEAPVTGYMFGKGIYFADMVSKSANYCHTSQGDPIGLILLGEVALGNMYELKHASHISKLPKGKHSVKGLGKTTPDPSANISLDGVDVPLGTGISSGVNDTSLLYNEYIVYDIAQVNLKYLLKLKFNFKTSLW
GST-tagged Tnks-2 (873-1166 aa), sequence (Q9H2K2 873-1166): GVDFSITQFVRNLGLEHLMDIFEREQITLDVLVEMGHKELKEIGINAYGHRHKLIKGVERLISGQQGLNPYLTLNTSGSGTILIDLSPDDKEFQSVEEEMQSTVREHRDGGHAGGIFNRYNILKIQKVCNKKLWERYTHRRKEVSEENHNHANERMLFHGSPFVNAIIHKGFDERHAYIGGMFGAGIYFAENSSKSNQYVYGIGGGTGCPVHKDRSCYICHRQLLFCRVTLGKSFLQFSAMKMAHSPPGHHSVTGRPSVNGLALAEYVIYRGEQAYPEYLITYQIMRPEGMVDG

| SMILES | IC50 (His-tagged Parp-1) [nM] | IC50 [1] [nM] | EC50 (tankyrase 1/2) [nM] | IC50 [2] [nM] |
| --- | --- | --- | --- | --- |
| CC(C)(O)c1ccc(-c2nc3c(F)cc(F)c(F)c3c(=O)[nH]2)cc1 [Compound A26, 5,6,8-trifluoro-2-[4-(1-hydroxy-1-methyl-ethyl)-phenyl]-3H-quinazolin-4-one] | 300 to 3000 | < 300 | < 300 | < 300 |
| Cc1cc(F)cc2c(=O)[nH]c(-c3ccc(N4CCC(CO)CC4)cc3)nc12 [Compound A31, 6-fluoro-2-[4-(4-hydroxymethyl-piperidin-1-yl)-phenyl]-8-methyl-3H-quinazolin-4-one] | 300 to 3000 | < 300 | < 300 | < 300 |
| Cc1cc(F)cc2c(=O)[nH]c(-c3ccc(N4CCC(O)CC4)cc3)nc12 [Compound A29, 6-fluoro-2-[4-(4-hydroxy-piperidin-1-yl)-phenyl]-8-methyl-3H-quinazolin-4-one] | < 300 | < 300 | < 300 | < 300 |
| O=c1[nH]c(-c2ccc(C3(O)CCCC3)cc2)nc2ccc(F)cc12 [Compound A16, 6-fluoro-2-[4-(1-hydroxycyclopentyl)phenyl]-3H-quinazolin-4-one] | 300 to 3000 | < 300 | 300 to 3000 | < 300 |
| CCC(O)(CC)c1ccc(-c2nc3ccc(F)cc3c(=O)[nH]2)cc1 [Compound A14, 2-[4-(1-ethyl-1-hydroxy-propyl)phenyl]-6-fluoro-3H-quinazolin-4-one] | 300 to 3000 | < 300 | < 300 | < 300 |
